Test results: US20040259823A1, “Cationic amphiphiles as transfection vehicles” (priority 2001, published 2004)

How the values were obtained:
Assay type in all cases: cell-based
[1] = tested on: COS-7 and HepG2 cells; experiment: Transfection with pCMV GFP plasmid, % GFP positive cells by FACS (cell line not given); details: cell line and helper lipid not given
Procedure: (§1) Transfections were carried out following standard protocols as is described in EP 0755924. In numerous publications variations of transfection protocols are given. A person acquainted with the field of non-viral transfections, in particular transfections using cationic amphiphiles will be able to use the cationic amphiphiles of the invention in transfection methods known per se. In standard experiments COS-7 cells are transfected with plasmid DNA containing the β-galactosidase reporter gene. Upon successful transfection the cell produces the enzyme β-galactosidase whose activity can be easily measured. Other plasmids comprising alternative reporter genes such as the gene encoding Green Fluorescent Protein or Chloroamphenicol Acetyl Transferase are suited as well. For analyzing stable transfection a plasmid containing the neomycin resistance gene can be used. Toxicity of the cationic amphiphiles towards the cells can be monitored qualitatively and quantitatively by visual inspection of the cells and by a protein determination.
(§2) A solution of cationic amphiphile in a 50/50 molar ratio with DOPE, DOPC or cholesterol in chloroform was dried under a stream of nitrogen. The residual solvent was removed under vacuum. The lipid film was hydrated in water at room temperature and sonicated to clarity in a bath sonicator immediately before use.
(§3) A 4.7 kb pair plasmid containing the GFP reporter gene under control of the cytomegalovirus immediate early gene promoter/enhancer (pCMV GFP).DNA was isolated from E. coli using a Qiagen Plasmid Kit (QIAGEN Inc, USA). The plasmid concentration was determined by measuring the absoption at 260 nm using the relation 1.0 OD=50 μg/ml. The OD260/OD280 value was 1.95.
(§4) COS-7 and HepG2 cells were cultured in Dulbecco's Modified Eagle Medium (DMEM Gibco The Netherlands) containing 7% of fetal calf serum, 2 mM L-Glutamine, 100 units/ml of penicilin and […] of streptomycin at 37° C. in CO2/air (1:19).
(§5) Cells (1×10^5 cells/well) were seeded in 12-well plates and were allowed to grow overnight.
(§6) The complex of cationic amphiphile/helper lipid (1:1) with pCMV GFP was prepared at the charge ratio 2.5:1 (15 nmol lipid and 1 μg DNA), in 100 μl 10 mM HEPES (pH=7.4, 150 mM NaCl). After 10-15 min incubation at room temperature, the resulting complex was diluted in 1 ml medium (DMEM) and 0.5 ml of the mixture was added to the cells and incubated for 4 h at 37° C. The transfection efficiency expressed as a percentage of GFP positive cells was measured by FACS (Fluorescence Activated Cell Soorting) 48 hours after the transfection.
(§7) Control wells underwent identical steps except that no cationic amphiphile was added.

[2] = tested on: HepG2; experiment: Transfection with pCMV GFP plasmid, % GFP positive cells by FACS (Table 3); details: HepG2, DOPE
Procedure: as §1, §2, §3, §4, §5, §6, §7

[3] = tested on: HepG2; experiment: Cell survival after transfection (Table 3); details: HepG2, DOPE; further: tested at 6.8 µM
Procedure: as §1, §4, §5, §6, §7

[4] = tested on: COS-7 and HepG2 cells; experiment: Cell survival after transfection (cell line not given); details: cell line and helper lipid not given; for % surv / % surv mean: Table 11
Procedure: as §1, §4, §5, §6, §7

[5] = tested on: COS-7 and HepG2 cells; experiment: Toxicity towards the cells by protein determination versus control wells; details: protein determination compared with the reference value of control wells
Procedure: as §1, with “determination. Control wells underwent identical steps except that no cationic amphiphile was added.” for “determination.”
Wherever % surv mean is given: tested at 6.8 µM.

Row | SMILES | % TE ([1]; Table 4) [%] | % TE ([1]; Table 6) [%] | % TE ([2]; first value) [%] | % TE mean [2] [%] | % TE ([2]; second value) [%] | % surv cells ([3]; first value) [%] | % surv cells Mean [3] [%] | % surv cells ([3]; second value) [%] | % surv cells ([4]; Table 4) [%] | % surv cells ([4]; Table 6) [%] | % TE ([1]; Table 5) [%] | % TE ([1]; Table 11, first value) [%] | % TE mean ([1]; Table 11) [%] | % surv cells ([4]; Table 5) [%] | % surv ([4]; first value) [%] | % surv mean [4] [%] | % TE ([1]; Table 11, second value) [%] | % surv ([4]; second value) [%] | other results
1 | CCCCCCCC/C=C\CCCCCCCC[n+]1ccc(CCCCC)cc1.[Cl-] [SF40, 1-(9′-cis-octadecenyl)-4-pentyl-pyridinium Chloride] | 5.18 | 0.16 | 0.04 | 0.09 | 0.14 | 30.55 | 30.09 | 29.63 | 69.87 | 94.54 | – | – | – | – | – | – | – | – | –
2 | CCCCCCCC/C=C\CCCCCCCC[n+]1ccc(CCCCCCC)cc1.[Cl-] [SF41, 1-(9′-cis-octadecenyl)-4-heptyl-pyridinium Chloride] | 7.13 | 3.44 | 0.07 | 0.085 | 0.1 | 28.65 | 34.62 | 40.59 | 60.54 | 89.11 | – | – | – | – | – | – | – | – | –
3 | CCCCCCCC/C=C\CCCCCCCCCc1cc[n+](CCCCCCCCCCCCCCCCCC)cc1.[Cl-] [SF46, 1-stearyl-4-(10′-cis-nonadecenyl)-pyridinium Chloride] | 9.17 | 1.11 | 11.65 | 9.07 | 6.49 | 16.79 | 15.445 | 14.1 | 72.57 | 93.55 | 2.71 | 10.6 | 10.6 | 76.34 | 87.02 | 87.02 | – | – | –
4 | CCCCCCCC/C=C\CCCCCCCC[n+]1ccc(CCCCCCCCCCCCCCCCC)cc1.[Cl-] [SF45, 1-(9′-cis-octadecenyl)-4-(heptadecyl) pyridinium Chloride] | 9.71 | 5.35 | 8.93 | 6.465 | 4 | 40.24 | 31.565 | 22.89 | 67.4 | 92.61 | 3.38 | 0.27 | 0.15 | 93.02 | 90.01 | 87.55 | 0.03 | 85.09 | –
5 | CCCCCCCC/C=C\CCCCCCCC[n+]1ccc(CCCCCCCCC)cc1.[Cl-] [SF42, 1-(9′-cis-octadecenyl)-4-nonyl-pyridinium Chloride] | 5.05 | 5.13 | 1.2 | 0.925 | 0.65 | 40.1 | 33.785 | 27.47 | 70.14 | 93.49 | 0.81 | 8.41 | 7.95 | 75.02 | 86.37 | 84.435 | 7.49 | 82.5 | –
6 | CCCCCCCC/C=C\CCCCCCCC[n+]1ccc(CCCCCCCCCCC)cc1 [SF43, 1-(9′-cis-octadecenyl)-4-undecyl-pyridinium Chloride] | 9.18 | 10.22 | 5.71 | 5.805 | 5.9 | 52.11 | 53.845 | 55.58 | 68.12 | 86.86 | 0.55 | 24.6 | 24.2 | 85.51 | 85.42 | 84.395 | 23.8 | 83.37 | –
7 | CCCCCCCC/C=C\CCCCCCCC[n+]1ccc(CCC)cc1.[Cl-] [SF39, 1-(9′-cis-octadecenyl)-4-propyl-pyridinium Chloride] | 4.38 | 0.84 | 0.1 | 0.085 | 0.07 | 24.55 | 28.015 | 31.48 | 66.48 | 92.2 | – | – | – | – | – | – | – | – | –
8 | CCCCCCCC/C=C\CCCCCCCCCc1cc[n+](CCCCCCCC/C=C\CCCCCCCC)cc1.[Cl-] [SF6, 1-(9′-cis-octadecenyl)-4-(10″-cis-nonadecenyl) pyridinium Chloride] | – | – | – | – | – | – | – | – | – | – | – | – | – | – | – | – | – | – | % TE ([1]; Table 1): 14.44%; % TE ([1]; Table 2): 11.48%; % TE ([1]; Table 7): 30.91%; % TE ([1]; Table 8): 9.96%; % TE ([1]; Table 9): 3.92%; % TE ([1]; Table 10): 9.14%; toxicity towards the cells [5]: marginal toxicity; % surv cells ([4]; Table 1): 75.3%; % surv cells ([4]; Table 2): 47.3%; % surv cells ([4]; Table 7): 84.06%; % surv cells ([4]; Table 8): 57.21%; % surv cells ([4]; Table 9): 70.01%; % surv cells ([4]; Table 10): 61.57%
9 | CCCCCCCCCCCCOC(=O)c1cc[n+](CCCCCCCCCCCC)cc1.[Cl-] [SF53, 1-dodecyl-4-(-carbo-(dodecyloxy)) pyridinium Chloride] | 9.04 | 0.56 | 2.13 | 2.13 | – | 37.51 | 37.51 | – | 65.91 | 91.74 | 0.71 | 6.67 | 6.67 | 91.6 | 84.51 | 84.51 | – | – | –
